Test results from patent US20250025490A1, “INDUCTION OF TRAINED IMMUNITY FOR THE TREATMENT OF HYPERPROLIFERATIVE DISORDERS” (priority 2021, published 2025).

How the values were obtained:
Type in all cases: cell-based, mice
[1] = test system: KPC tumor cells; test: Cytotoxicity assay of pancreatic CD11b+ cells against KPCLuc+ cells; details: NAC 1 mM
Description: The pancreas from WGP and PBS treated mice were harvested and the CD11b^+ populations were isolated using magnetic CD11b^+ MicroBeads (Miltenyi Biotec) and an autoMACS Pro Separator (Miltenyi Biotec). Purified CD11b^+ cells were then washed and counted, and these were plated at a ratio of 1:20 tumor:effector cells in a 96 well plate. All experimental samples were run in triplicate. After plating the CD11b^+ cells, the ROS inhibitor […] (NAC) (Sigma Aldrich) was added to one set of PBS and WGP derived cells at 1 mM for 1 hour before the addition of 5000 luciferase expressing KPC^+ pancreatic tumor cells to all wells. After 24 hours, of coculture, the plates were centrifuged and 20 μL of the supernatant was mixed with 100 μL of the Luciferase Assay Reagent (Promega). Luciferase activity measured in the supernatant correlated with tumor cells that had been killed by the effector cells and was measured using a luminometer (Femtomaster FB 12, Zylux Corporation). The spontaneous luciferase signal from plated tumor cells was subtracted from the measurement of the supernatant. Luciferase values are represented as Relative Light Units (RLUs).

[2] = test system: Drp-1; test: p-Drp-1 / Drp-1 by flow cytometry and Western blot
Description: (§1) Mitochondrial ROS quantitation. Peritoneal macrophages were treated with WGP or S1P in the presence or absence of Mdivi-1 and incubated at 37° C. with 5% CO2 for 24 h. The cells were then harvested, washed with PBS and pelleted by centrifugation at 1600 rpm for 5 min at room temperature. The pellets were then stained with MitoSOX Red dye (5 μM) (Invitrogen) at 37° C. for 15 min. The cells were washed with pre-warmed HBSS followed by another wash with PBS at room temperature. The cells were then stained with viability dye and anti-F4/80 and then acquired by flow cytometry. Flow cytometry for p-Drp-1. Peritoneal macrophages were treated with WGP (25 μg/ml) or S1P (1 μM) and incubated at 37° C. with 5% CO2 for 3-4 h. Following the completion of incubation, the cells were quickly washed with cold PBS to stop the activation. The cells were harvested and washed with PBS. The cells were then fixed with 4% formaldehyde for 15 min at room temperature, washed with PBS and permeabilized using ice-cold 100% methanol on ice for a minimum of 10 min. The cells were then stained with primary antibody (p-Drp1) (Cell Signaling) for 1 hour at room temperature followed by secondary antibody (Anti-rabbit IgG) (Biolegend) for 30 min at room temperature as instructed in the Cell Signaling phospho-stain protocol and analyzed using flow cytometry.
Western blot analysis for total Drp-1 and p-Drp-1. […]

[3] = test system: peritoneal macrophages; test: Mitochondrial ROS quantitation (MitoSox Red); details: peritoneal macrophages, 24 h
Description: as §1

[4] = test system: peritoneal macrophages; test: In vitro training and re-stimulation of peritoneal macrophages (Example 2), TNF-α ELISA
Description: Isolation and culture of peritoneal macrophages. Mice were euthanized with CO2 inhalation and injected i.p. with 5 ml of sterile cold, complete DMEM medium (Sigma Aldrich) followed by gentle massage of the peritoneum. The peritoneal fluid was then collected, centrifuged at 1600 rpm for 5 min. The cell pellet was washed, counted, and plated at appropriate numbers in complete DMEM. The cells were incubated for 2-4 hours at 37° C. and 5% CO2 to allow peritoneal macrophages attached to the plates. The floating cells were aspirated and plates were gently washed with sterile pre-warmed medium and then added with fresh complete DMEM. For comparison studies between different mouse strains, peritoneal cells were stained with viability dye and anti-F4/80 antibodies (Biolegend) and F4/80^+ macrophages were sorted by FACS Aria III (BD Bioscience).
In vitro training and re-stimulation of peritoneal macrophages. Peritoneal macrophages were treated with 25 μg/ml of WGP or polystyrene beads (3 μm, Sigma-Aldrich) and incubated for 24 h at 37°° C. with 5% CO2. Macrophages were then washed with pre-warmed complete DMEM at least twice to remove excess WGP or polystyrene beads, added with fresh complete DMEM and incubated 6 days. On day 7, macrophages were re-stimulated with different stimuli such as LPS (10 ng/ml) (Sigma), tumor cells, tumor cell culture supernatants (40%) or rMIF (100 ng/ml) (kindly provided by Dr. Robert Mitchell) for 24 h. The culture supernatants were harvested and assayed for TNF-α by ELISA. For cell culture supernatants, tumor cell lines including LLC, B16F10, and EL4, and control cell line MLE-12 were used.
These cell lines were cultured (1 million/4 ml complete DMEM) in a 6-well plate and incubated for 72 h. The supernatants were harvested and stored at −80° C. in aliquots.
ELISA for TNF-α and MIF. TNF-α in the culture supernatants was measured using TNF-α ELISA kit (Biolegend) and MIF levels in the culture supernatants were quantified using mouse MIF ELISAkit (R&D Systems) per the manufacturer's instruction.
In vitro training with S1P. Peritoneal macrophages were stimulated with 200 nM or 300 nM of S1P for 24 h at 37° C. and 5% CO2. The macrophages were then washed and allowed for resting. On day 7, the macrophages were stimulated with LPS (10 ng/ml) or LLC culture supernatant (40%) for 24 h and the supernatants were collected for the quantification of TNF-α using ELISA. For another set of in vitro-training experiment, macrophages were trained with S1P in the presence of Mdivi-1 (10 μM) during S1P training and throughout the resting period. Cells were restimulated with LPS and the supernatants were collected to determine TNF-α levels by ELISA.
[…] The inhibitors were further added to the macrophage cultures and incubated at 37° C. and 5% CO2 for 6 more days. On day 7, the macrophages were washed once with pre-warmed complete DMEM and added LPS (10 ng/ml) or LLC culture supernatant (40%) for re-stimulation.

For CC(=O)N[C@@H](CS)C(=O)O [NAC, N-Acetyl Cysteine], which “effect of ROS inhibition on WGP-elicited cytotoxicity” value [1] is on record?
The value was “completely abrogated the WGP-elicited increase in cytotoxicity”.

With CCCCCCCCCCCCC/C=C/[C@@H](O)[C@@H](N)COP(=O)(O)O [S1P, sphingosine-1-phosphate] as the compound, how does the “phosphorylation of Drp-1” value ([2]; peritoneal macrophages) read?
The value was “significantly increased p-Drp-1 in macrophages”.

And the mtROS production [3]?
Its mtROS production is “exhibited an enhanced mtROS production”.

What about the “TNF-α production of macrophages trained with S1P” value ([4]; S1P 200 nM or 300 nM, LPS or LLC supernatant restimulation) of the same compound?
Its value is “showed significantly higher TNF-α production compared to the untrained controls”.

CCCC[C@@H](C)[C@@H](OC(=O)C[C@@H](CC(=O)O)C(=O)O)[C@H](C[C@@H](C)C[C@H](O)CCCC[C@@H](O)C[C@H](O)[C@H](C)N)OC(=O)C[C@@H](CC(=O)O)C(=O)O [Fumonisin-B1] was tested. Which “effect on WGP-mediated trained response (TNF-α)” value ([4]; Fumonisin-B1 25 μM, LPS and LLC supernatants) did it give?
The value was “abrogated WGP-mediated trained response”.

For O=C(NCc1ccncc1)C12CC3CC(C1)CC(c1ccc(Cl)cc1)(C3)C2 [Sphk2i], which “effect on p-Drp-1 in WGP-treated macrophages” value ([2]; Sphk2i 50 μM, 3 h and 6 h) is on record?
Its value is “decreased the level of p-Drp-1 but not total Drp-1”.

And the “effect on WGP trained responses (TNF-α)” value ([4]; Sphk2i 25 μM or 50 μM, LPS and LLC supernatant)?
Its value is “completely attenuated the trained responses”.
